Data from ChEMBL document CHEMBL1155358, “Unsaturated genistein disaccharide glycoside as a novel agent affecting microtubules” (2009).
Activity calls are given as the source filed them. The rule behind the calls is not given here.

Legend:
DU-145 [1] = test: Induction of apoptosis in human DU145 cells at interphase assessed as curly appearance of microtubules at 1 nM after 24 hrs by beta tubulin immunofluorescent staining; type: functional, cell-based
DU-145 [2] = test: Cell cycle arrest in human DU145 cells assessed as accumulation between G1 phase and G2M phase at 10 uM after 24 hrs by flow cytometry using propidium iodide staining; type: functional
DU-145 [3] = test: Cell cycle arrest in human DU145 cells assessed as accumulation between G1 phase and G2M phase at 5 uM after 24 hrs by flow cytometry using propidium iodide staining; type: functional
DU-145 [4] = test: Cell cycle arrest in human DU145 cells assessed as accumulation at < G2M phase at 10 uM after 24 hrs by flow cytometry using propidium iodide staining; type: functional
DU-145 [5] = test: Induction of apoptosis in human DU145 cells at interphase assessed as loosened of microtubule network at 5 uM after 24 hrs by beta tubulin immunofluorescent staining; type: functional, cell-based
DU-145 [6] = test: Cell cycle arrest in human DU145 cells assessed as accumulation at G2M phase relative to control; type: functional
DU-145 [7] = test: Cell cycle arrest in human DU145 cells assessed as accumulation at G1 phase at 5 uM after 24 hrs by flow cytometry using propidium iodide staining; type: functional
DU-145 [8] = test: Cell cycle arrest in human DU145 cells assessed as accumulation at G2M phase at 5 uM after 24 hrs by flow cytometry using propidium iodide staining; type: functional
DU-145 [9] = test: Cell cycle arrest in human DU145 cells assessed as accumulation at >G1 phase at 10 uM after 24 hrs by flow cytometry using propidium iodide staining; type: functional
DU-145 [10] = test: Cell cycle arrest in human DU145 cells assessed as accumulation at < G2M phase at 5 uM after 24 hrs by flow cytometry using propidium iodide staining; type: functional
DU-145 [11] = test: Induction of apoptosis in human DU145 cells at interphase assessed as complete disappearance of microtubules at 25 uM after 24 hrs by beta tubulin immunofluorescent staining; type: functional, cell-based
DU-145 [12] = test: Cell cycle arrest in human DU145 cells assessed as accumulation at G2M phase at 10 uM after 24 hrs by flow cytometry using propidium iodide staining; type: functional
DU-145 [13] = test: Cell cycle arrest in human DU145 cells assessed as accumulation at >G1 phase at 5 uM after 24 hrs by flow cytometry using propidium iodide staining; type: functional
DU-145 [14] = test: Cell cycle arrest in human DU145 cells assessed as accumulation at G1 phase at 10 uM after 24 hrs by flow cytometry using propidium iodide staining; type: functional
DU-145 [15] = test: Induction of apoptosis in human DU145 cells at interphase assessed as dencer microtubue network at 2 nM after 24 hrs by beta tubulin immunofluorescent staining; type: functional, cell-based
DU-145 [16] = test: Cell cycle arrest in human DU145 cells assessed as accumulation at >G1 phase at 50 uM after 24 hrs by flow cytometry using propidium iodide staining; type: functional
DU-145 [17] = test: Cell cycle arrest in human DU145 cells assessed as accumulation at G1 phase at 50 uM after 24 hrs by flow cytometry using propidium iodide staining; type: functional
DU-145 [18] = test: Cell cycle arrest in human DU145 cells assessed as accumulation at G2M phase at 50 uM after 24 hrs by flow cytometry using propidium iodide staining; type: functional
DU-145 [19] = test: Cell cycle arrest in human DU145 cells assessed as accumulation at G2M phase at 100 uM after 24 hrs by flow cytometry using propidium iodide staining; type: functional
DU-145 [20] = test: Cell cycle arrest in human DU145 cells assessed as accumulation between G1 phase and G2M phase at 100 uM after 24 hrs by flow cytometry using propidium iodide staining; type: functional
DU-145 [21] = test: Cell cycle arrest in human DU145 cells assessed as accumulation at < G2M phase at 50 uM after 24 hrs by flow cytometry using propidium iodide staining; type: functional
DU-145 [22] = test: Cell cycle arrest in human DU145 cells assessed as accumulation at >G1 phase at 100 uM after 24 hrs by flow cytometry using propidium iodide staining; type: functional
DU-145 [23] = test: Induction of apoptosis in human DU145 cells at interphase assessed as alteration in microtubule array at 100 uM after 24 hrs by beta tubulin immunofluorescent staining; type: functional, cell-based
DU-145 [24] = test: Cell cycle arrest in human DU145 cells assessed as accumulation between G1 phase and G2M phase at 50 uM after 24 hrs by flow cytometry using propidium iodide staining; type: functional
DU-145 [25] = test: Cell cycle arrest in human DU145 cells assessed as accumulation at < G2M phase at 100 uM after 24 hrs by flow cytometry using propidium iodide staining; type: functional
DU-145 [26] = test: Cell cycle arrest in human DU145 cells assessed as accumulation at G1 phase at 100 uM after 24 hrs by flow cytometry using propidium iodide staining; type: functional

`CC[C@]1(O)C[C@@H]2CN(CCc3c([nH]c4ccccc34)[C@@](C(=O)OC)(c3cc4c(cc3OC)N(C)[C@H]3[C@@](O)(C(=O)OC)[C@H](OC(C)=O)[C@]5(CC)C=CCN6CC[C@]43[C@@H]65)C2)C1` was tested, and the Activity (DU-145 [1]) was “Active”.
Work on `CC(=O)OC[C@H]1O[C@@H](O[C@H]2C=C[C@@H](Oc3cc(O)c4c(=O)c(-c5ccc(O)cc5)coc4c3)O[C@@H]2COC(C)=O)[C@H](OC(C)=O)[C@@H](OC(C)=O)[C@H]1OC(C)=O` yielded an Activity (DU-145 [2]) of 11.4%, an Activity (DU-145 [3]) of 10.1% and an Activity (DU-145 [4]) of 1.7%. For the same compound, the Activity (DU-145 [5]) was “Active”, the Activity (DU-145 [6]) was 30% and the Activity (DU-145 [7]) was 26.5%. The Activity (DU-145 [8]) was 54.5%, the Activity (DU-145 [9]) was 5.7% and the Activity (DU-145 [10]) was 1.4%. The Activity (DU-145 [11]) was “Active”, the Activity (DU-145 [12]) was 57.8% and the Activity (DU-145 [13]) was 7.5%. It also gave an Activity (DU-145 [14]) of 23.4%.
With `CC(=O)O[C@H]1C(=O)[C@@]2(C)[C@H]([C@H](OC(=O)c3ccccc3)[C@]3(O)C[C@H](OC(=O)[C@H](O)[C@@H](NC(=O)c4ccccc4)c4ccccc4)C(C)=C1C3(C)C)[C@]1(OC(C)=O)CO[C@@H]1C[C@@H]2O` the Activity (DU-145 [15]) was “Active”.
Compound `O=c1c(-c2ccc(O)cc2)coc2cc(O)cc(O)c12` [GENISTEIN] has an Activity (DU-145 [16]) of 5.1%, an Activity (DU-145 [17]) of 55.9% and an Activity (DU-145 [18]) of 17.1%. It also gave an Activity (DU-145 [19]) of 27.2%, an Activity (DU-145 [20]) of 20.8% and an Activity (DU-145 [21]) of 2.8%. For the same compound, the Activity (DU-145 [22]) was 6.1%, the Activity (DU-145 [23]) was “inactive” and the Activity (DU-145 [24]) was 19.2%. For the same compound, the Activity (DU-145 [25]) was 1.6% and the Activity (DU-145 [26]) was 44.3%.
